Test results: US7906491B2 (Univisitair Medisch Centrum Utrecht, priority 2002, dated 2011)

How the values were obtained:
Format in all cases: cell-based
Rap1 [1] = assay: Rap1 activation assay (read-out for Epac) in NIH3T3-A14-Epac1 cells; conditions: 15 min, 8-Br-cAMP 1 mM
Method: (§1) Upper panel: NIH3T3-A14-Epac1 cells were treated for 15 min with 8-Br-cAMP, and cell lysates were analyzed for activation of Rap1 and phosphorylation of CREB. Lower panel: NIH3T3-A14-Epac1 cells were treated in duplicate for 15 min with increasing concentrations of 8-pCPT-2′-O-Me-cAMP. Cells were lysed and equal amounts of cell lysate were incubated with precoupled GST-RalGDSRBD and Rap1 was assayed by immunoblotting with Rap1 antibody.
(§2) Therefore, 8-CPT-2′-O-Me-cAMP was tested in NIH3T3-A14-Epac1 cells for the activation of Epac, using Rap1 as a read-out, and of PKA, using phosphorylation of the common PKA substrate CREB 29 as a read-out.
NIH3T3-A14 cells, stably expressing Epac1, were grown in DMEM with 10% fetal calf serum and 2 μg/ml puromycin. NIH-OVCAR3 (Ovcar3) cells were maintained in RPMI with 10% fetal calf serum. Transient transfection of Ovcar3 cells was performed using the FuGENE 6 transfection reagent (Roche Diagnostics, Mannheim, Germany) according to the manufacturer's procedures, using 6 μg total DNA including a CMV-luciferase plasmid (0.2 μg).
Rap activation assays were performed as described previously (16-18). Briefly, cells were lysed in lysis buffer containing 10% glycerol, 1% Nonidet P-40, 50 mM Tris-Cl pH7.5, 200 mM NaCl, 2mM MgCl2, 1 μM leupeptin, 0.1 μM aprotinin, 5 mM NaF, 1 mM NaVO3. Lysates were clarified by centrifugation and incubated with GST-tagged RalGDS-RBD pre-coupled to glutathione beads to specifically pull down the GTP-bound forms of Rap1. Samples were incubated for 1 hr at 4° C. while tumbling. Beads were washed four times in lysis buffer, and the remaining fluid was removed with an insulin syringe. Proteins were eluted with Laemmli sample buffer and analyzed by sodium dodecyl sulphate (SDS)-polyacrylamide gel electrophoresis and Western blotting using Rap1 antibodies. As a control, Rap1 levels in whole cell lysates were determined.

CREB = CREB phosphorylation (read-out for PKA) in NIH3T3-A14-Epac1 cells; conditions: 15 min, 8-Br-cAMP 1 mM
Method: as §1, §2
Antibodies against phosphorylated CREB (directed against phosphorylated Serl33) were obtained from Cell Signalling (Beverly, Mass., USA), and antibodies against K-Rev/Rap1 and polyclonal anti-HA were obtained from Santa Cruz Biotechnology (Santa Cruz, Calif., USA). The following inhibitors and stimuli were used at concentrations indicated, unless stated otherwise: RGD peptide (100 μM) and H-89 (10 μM) was obtained from Biomol Research Laboratories Inc. (Plymouth Meeting, Pa., USA). 8-Br-cAMP (1 mM) was obtained from BIOLOG Life Science Institute (Bremen, Germany). TPA (12-O-tetradecanoylphorbol-13-acetate) was obtained from Sigma (Steinheim, Germany) and was used at a concentration of 100 ng/ml. […]

Ovcar3 cells = assay: Adhesion assay of Ovcar3 cells to fibronectin; conditions: H-89 10 μM, 8-pCPT-2′-O-Me-cAMP 100 μM, FIG. 7C
Method: A: 8-pCPT-2′-O-Me-cAMP stimulates cell adhesion. Upper panel: quantification of Ovcar3 cells adhering to fibronectin after treatment with increasing concentrations of 8-pCPT-2′-O-Me-cAMP. Lower panel: Ovcar3 cells were treated with increasing concentrations of 8-pCPT-2′-O-Me-cAMP for 15 min, cells were lysed and analyzed for activation of Rap1 (upper blot) and CREB (lower blot). Total Rap1 levels are shown (middle blot). B: 8-pCPT-2′-O-Me-cAMP increases the rate of cell adhesion. Upper panel: quantification of Ovcar3 cells adhering to fibronectin at various time points. Lower panel: cells were treated with 60 μM 8-pCPT-2′-O-Me-cAMP for the indicated times. Cell lysates were analyzed for activation of Rap1 (upper blot) and CREB (lower blot). Total levels of Rap1 in cell lysates are shown (middle blot). C: Ovcar3 cells were either pre-incubated at 37° C. for 30 min with the PKA inhibitor H-89 (10 μM) 30 min prior to seeding onto the wells (‘Short’) or H-89 was added 30 min prior to trypsinization and during the recovery period (‘Long’) and seeded onto wells in the absence or presence of 8-pCPT-2′-O-Me-cAMP (100 μM). Cells were allowed to adhere for 1 h. D, cAMP-induced adhesion to fibronectin is blocked by inhibitors of Rap1. Left panel: Ovcar3 cells were transiently transfected with either mock DNA, increasing concentrations of HA-Rap1GAP II (0.5, 1, 2 or 6 μg, respectively), HA-Rap1GAPI (6 μg) or HA-RBD of RalGDS (6 μg), respectively. Cells were treated with 8-Br-cAMP or 8-pCPT-2′-O-Me-cAMP and adhesion to fibronectin was determined. […]
In functional assays, 8-pCPT-2′-O-Me-cAMP appeared to induce integrin-mediated cell adhesion through Epac and Rap1. […] The cells were seeded onto fibronectin-coated plates in the presence or absence of 8-pCPT-2′-O-Me-cAMP and the amount of cells that adhered after a certain period of time was quantified. […]
24-well plates were coated overnight with 2 μg/ml fibronectin (Sigma, St. Louis, Mo., USA) in sodium bicarbonate buffer (Sigma, St. Louis, Mo., USA). […] Cells were centrifuged, counted and resuspended at 3×10^5 cells/ml in serum-free RPMI with 0.5% BSA. […]

Rap1 [2] = assay: Rap1 activation assay in Ovcar3 cells; conditions: H-89 10 μM, FIG. 7C
Method: A: 8-pCPT-2′-O-Me-cAMP stimulates cell adhesion. Upper panel: quantification of Ovcar3 cells adhering to fibronectin after treatment with increasing concentrations of 8-pCPT-2′-O-Me-cAMP. Lower panel: Ovcar3 cells were treated with increasing concentrations of 8-pCPT-2′-O-Me-cAMP for 15 min, cells were lysed and analyzed for activation of Rap1 (upper blot) and CREB (lower blot). Total Rap1 levels are shown (middle blot). B: 8-pCPT-2′-O-Me-cAMP increases the rate of cell adhesion. Upper panel: quantification of Ovcar3 cells adhering to fibronectin at various time points. Lower panel: cells were treated with 60 μM 8-pCPT-2′-O-Me-cAMP for the indicated times. Cell lysates were analyzed for activation of Rap1 (upper blot) and CREB (lower blot). Total levels of Rap1 in cell lysates are shown (middle blot). C: Ovcar3 cells were either pre-incubated at 37° C. for 30 min with the PKA inhibitor H-89 (10 μM) 30 min prior to seeding onto the wells (‘Short’) or H-89 was added 30 min prior to trypsinization and during the recovery period (‘Long’) and seeded onto wells in the absence or presence of 8-pCPT-2′-O-Me-cAMP (100 μM). Cells were allowed to adhere for 1 h. D, cAMP-induced adhesion to fibronectin is blocked by inhibitors of Rap1. Left panel: Ovcar3 cells were transiently transfected with either mock DNA, increasing concentrations of HA-Rap1GAP II (0.5, 1, 2 or 6 μg, respectively), HA-Rap1GAPI (6 μg) or HA-RBD of RalGDS (6 μg), respectively. Cells were treated with 8-Br-cAMP or 8-pCPT-2′-O-Me-cAMP and adhesion to fibronectin was determined. Right upper panel: luciferase counts of total input cells per well in the above experiment are shown. Right lower panel: expression of HA-Rap1GAPs in the above experiment is shown.
Rap activation assays were performed as described previously (16-18). […] Proteins were eluted with Laemmli sample buffer and analyzed by sodium dodecyl sulphate (SDS)-polyacrylamide gel electrophoresis and Western blotting using Rap1 antibodies. As a control, Rap1 levels in whole cell lysates were determined.

Compound	activation of Rap1 (Rap1 [1])	phosphorylation of CREB (CREB)	effect on 8-pCPT-2′-O-Me-cAMP induction of adhesion (Ovcar3 cells)	effect on 8-pCPT-2′-O-Me-cAMP activation of Rap1 (Rap1 [2])
Nc1ncnc2c1nc(Br)n2[C@@H]1O[C@@H]2COP(=O)(O)O[C@H]2[C@H]1O [Compound 8-Br-cAMP, 8-Br-cAMP, reference compound]	induced both the activation of Rap1	induced both the activation of Rap1 and the phosphorylation of CREB	–	–
O=S(=O)(NCCNC/C=C/c1ccc(Br)cc1)c1cccc2cnccc12 [Compound H-89, H-89, reference compound]	–	–	insensitive	insensitive
